Test results published in PMC9032934 (Pharmaceutics, 2022).
Non-standard residues stand in square brackets, D forms with d. Residues, ends and D or L forms follow the SMILES beside them.

Key:
Caco-2 cells [1] = test: Cell viability by DAPI labeling in flow cytometry, Caco-2; settings: CPZ 20 μM, NYS 50 μM, MBCD 5 mM, compared to non-treated cells (80 ± 10%)
Protocol: At the end of each incubation, cells were rinsed twice with D-PBS. […] After the addition of 400 μL of D-PBS supplemented with 5% (v/v) FBS, cells were transferred to 1.5 mL tubes and centrifuged (10 min, 4 °C, 1500 rpm). Cell pellets were resumed in 500 μL of D-PBS supplemented with 0.5% (v/v) FBS and 0.1% (v/v) 4′,6-diamidino-2-phenylindole (DAPI solution, Sigma-Aldrich, (Saint-Quentin-Fallavier, France), transferred to round-bottom polystyrene Falcon tubes (Thermo Fisher Scientific Inc., Rockford, IL, USA) and analyzed with a Fortessa LSR cytometer (Becton Dickinson, Pont-de-Claix, France; DAPI: λex = 405 nm/λem = 425–475 nm; TAMRA: λex = 561 nm/λem = 605–625 nm). Damaged cells were excluded with the DAPI labeling. For each condition, 10,000 events were recorded.

Caco-2 cells [2] = test: Cellular uptake of Tamra-labelled peptides by flow cytometry, Caco-2; assay type: cell-based, human; settings: for decrease in transfection efficiency with 10% serum / decrease in transfection efficiency with 20% serum: Tamra-peptides 5 µM, 3 h; for decrease in transfection efficiency with 10% serum: OptiMEM + 10% (v/v) FBS vs 0%; for decrease in transfection efficiency with 20% serum: OptiMEM + 20% (v/v) FBS vs 0%
Protocol: (§1) Next, 48 h post-seeding, cells were rinsed twice with D-PBS and then incubated with 500 μL of Tamra-CPP-iCAL36 solution at the indicated conditions.
(§2) Standard transfection and kinetic measurements.
(§3) Transfection in the presence of serum.

Calu-3 cells = test: Cellular uptake of Tamra-labelled peptides by flow cytometry, Calu-3; assay type: cell-based, human
Protocol: as §1, §2, §3

TatRI-iCAL36 = target: T1, TatRI-iCAL36 (N-terminal D-amino acid retro-inverso Tat (qpprrrqrrkkrg)); test: fluorescence polarization
T1 chain: ANSRWPTSII

## C[C@@H]1[C@H](O)[C@@H](C)/C=C/C=C/CC/C=C/C=C/C=C/C=C/C(O[C@H]2O[C@H](C)[C@@H](O)[C@H](N)[C@@H]2O)CC2O[C@](O)(CC(O)C(O)CCC(O)CC(O)CC(O)CC(=O)O[C@H]1C)CC(O)C2C(=O)O (some centres unmarked) [NYS, nystatin]
Caco-2 cells [1]
  loss of viability (slight cytotoxicity) by endocytosis inhibitors: 5–20%

## CC[C@H](C)[C@H](NC(=O)[C@@H](NC(=O)[C@H](CO)NC(=O)[C@@H](NC(=O)[C@@H]1CCCN1C(=O)[C@H](Cc1c[nH]c2ccccc12)NC(=O)[C@H](CCCNC(=N)N)NC(=O)[C@H](CO)NC(=O)[C@H](CC(N)=O)NC(=O)[C@H](C)NC(=O)CNC(=O)[C@@H](CCCNC(=N)N)NC(=O)[C@@H](CCCCN)NC(=O)[C@@H](CCCCN)NC(=O)[C@@H](CCCNC(=N)N)NC(=O)[C@@H](CCCNC(=N)N)NC(=O)[C@@H](CCC(N)=O)NC(=O)[C@@H](CCCNC(=N)N)NC(=O)[C@@H](CCCNC(=N)N)NC(=O)[C@@H](CCCNC(=N)N)NC(=O)[C@H]1CCCN1C(=O)[C@H]1CCCN1C(=O)[C@H](N)CCC(N)=O)[C@@H](C)O)[C@@H](C)CC)C(=O)O [TatRI-iCAL36] (H-[dQ][dP][dP][dR][dR][dR][dQ][dR][dR][dK][dK][dR]GANSRWPTSII-OH)
Caco-2 cells [2]; Tamra-TatRI-iCAL36 1 µM, CQ 100 µM, n = 4, one-way ANOVA
  intracellular fluorescence without vs with chloroquine, peptide at 1 µM: no statistical difference
Caco-2 cells [2]; 37 °C, n = 4
  decrease in transfection efficiency with 10% serum: no significant difference
  decrease in transfection efficiency with 20% serum: 18%
Caco-2 cells [2]; Tamra-peptides in OptiMEM, 4.5 h vs […], 37 °C, n = 3 (Figure S2A)
  increase in signal intensity (internalization) with longer incubation time (4.5 h): ~ 3 fold

## GALFLGWLGAAGSTMGAWSQPKKKRKV-ANSRWPTSII [MPG-iCAL36, MPG cell-penetrating peptide conjugated to iCAL36]
Caco-2 cells [2]; Tamra-labelled peptides 1 µM or 5 µM in OptiMEM, […], 37 °C, trypsinization, mean ± SD, n = 4
  cellular internalization (Tamra fluorescence), comparison between peptides: superior to Tat-iCAL36 and its analogs
Caco-2 cells [2]; 37 °C, n = 4
  decrease in transfection efficiency with 10% serum: ~ 30%
  decrease in transfection efficiency with 20% serum: ~ 50%
Calu-3 cells; Calu-3, Tamra-labelled peptides 1 µM or 5 µM in OptiMEM, […], 37 °C, trypsinization, flow cytometry, mean ± SD, n = 4
  cellular internalization (Tamra fluorescence), comparison between peptides: superior to Tat-iCAL36 and its analogs
Calu-3 cells; Calu-3, Tamra-peptides 5 µM, 3 h, OptiMEM + 10% (v/v) FBS vs 0%, 37 °C, flow cytometry, n = 4
  decrease in transfection efficiency with 10% serum: ~ 20%
Calu-3 cells; Calu-3, Tamra-peptides 5 µM, 3 h, OptiMEM + 20% (v/v) FBS vs 0%, 37 °C, flow cytometry, n = 4
  decrease in transfection efficiency with 20% serum: ~ 30%

## GRKKRRQRRRPPQ-ANSRWPTSII (GRKKRRQRRRPPQANSRWPTSII) [Tat-iCAL36, Tat cell-penetrating peptide conjugated to the N-terminus of iCAL36]
Calu-3 cells
  increase in signal intensity (internalization) with longer incubation time (4.5 h): ~ 5.7 fold

B1: NHERF2 PDZ2 (N2P2) PDZ2 (protein)
chain: LRPRLCHLRKGPQGYGFNLHSDKSRPGQYIRSVDPGSPAARSGLRAQDRLIEVNGQNVEGLRHAEVVASIKAREDEARLLVVDPETD
TatRI-iCAL36
  Ki: > 5 mM

B2: NHERF2 PDZ1 (N2P1) PDZ1 (protein)
chain: RPRLCRLVRGEQGYGFHLHGEKGRRGQFIRRVEPGSPAEAAALRAGDRLVEVNGVNVEGETHHQVVQRIKAVEGQTRLLVVDQETD
TatRI-iCAL36
  Ki: > 5 mM
